Data taken from patent US20250236614A1, “BICYCLIC TETRAHYDROAZEPINE DERIVATIVES” (Hoffmann-La Roche Inc., priority 2022, published 2025).
pEC50, pIC50: −log10 of the molar value. Read-outs that look alike come from different tables or passages of the source.

Key:
[1] = biological target: T1, hDGKzeta(1-928)-N-His (DGKZ) (Homo sapiens, UniProt Q13574); test: In vitro DGK inhibition assay (ADP-Glo, in house), DGK zeta; assay type: biochemical; conditions: isomer A; 2 nM DGK ζ, 50 μM ATP, 125 μM DLG in liposomes, 1 hour reaction; read-out: DGKzeta ADP Glo assay IC50
T1 construct: hDGKzeta(1-928)-N-His; His (N)
Outline: (§1)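 Sf21-expressed full-length His-tagged enzymes (DGKA 4 nM, DGKZ 2 nM) phosphorylated 125 μM DLG in PS/PC liposomes with ATP at 25 μM (DGKA) or 50 μM (DGKZ). After 1 h, ADP was measured by ADP-Glo luminescence. Compounds: 11-point 1:3 dilutions from 10 mM top concentration.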

[2] = biological target: T2, hDGKalpha(1-735)-N-His (DGKA) (Homo sapiens, UniProt P23743); test: In vitro DGK inhibition assay (ADP-Glo, in house), DGK alpha; assay type: biochemical; conditions: isomer A; 4 nM DGK α, 25 μM ATP, 125 μM DLG in liposomes, 1 hour reaction; read-out: DGKalpha ADP Glo assay IC50
T2 construct: hDGKalpha(1-735)-N-His; His (N)
Outline: as §1

primary human T-cells = test: IL2 secretion measurements in CD3-stimulated T-cells; assay type: cell-based; conditions: isomer A; for pEC50: CD3 antibody-stimulated T-cells, IL2 in supernatant after 24 hours, read-out: Tcell IL2 CD3 EC50; for Emax: read-out: Emax IL2 (% activation)
Protocol: As readouts for T-cell activation, IL2 secretion after 24 hours and proliferation after 5 days was measured. Increases in IL2 secretion and proliferation upon compound treatment were assessed as the % of the maximum of reference compound A1. WO 2016/139181 discloses reference compound A1 as example 70. As a counter screen and to make sure that no unwanted TCR-independent activation was triggered, PBS conditions were run for all compounds.
Expanded primary human T-cells were thawed and cultured in RPMI 1640 (Gibco, #61870-010)+5% human serum (HS, Sigma, #H3667)+1 mM Sodium Pyruvate (Gibco, #11360-039)+50 μM 2-mercaptoethanol (Gibco, #31350-010) and lx Pen-Strep (Life Technologies, #15140122) medium at density of 2 Mio/ml for 3 hours in 5% CO2, 37° C. and 95% humidity. For coating of plates, […] or PBS++ with CD3 antibody (concentration depending on donor and determined by CD3 titrations) was added 100 μl/well to Poly-D Lysine coated 96-well plates. Plates were sealed and incubated at room temperature for 3 hours on a table-top rocking platform. After incubation, plates were washed once with PBS−− and filled with 40 μl/well culture medium only. Compounds were then added (see next section) to medium only plates. After 3 hours of culturing the T-cells, cells were filtered through a cell strainer (Miltenyi Biotech, #130-041-407), counted again and concentration was adjusted to 1.25 Mio/ml.
Cells were then seeded 80 μl/well to the 40 μl/well including dispensed compounds according to plate layout. By adding cells, compounds were further diluted 1:3, and resulting in 100k cells/120 μl/well. After 24 hours 40 μl of supernatant was collected carefully from the top while not disturbing the cells and transferred into a round bottom 96 well plate. Collected and frozen supernatant was used for detection of IL2 using the IL-2 Human ProQuantum Immunoassay Kit (Invitrogen) or using the Human IL-2 ELISA Kit (Thermo Fisher).
Compounds were added in a 5 or 6 pt dose response with the Tecan D300e Digital Dispenser, all conditions 3 times more concentrated than the end-concentration, since cells are added afterwards (80 μl cells to 40 μl prepared medium with treatment). The DR was starting at 20 μM or 10 μM final top concentration and a dilution factor of 3.333. The positive control was the reference compound A1 that was added in a dose response as well, additionally to 3 wells of only 20 μM representing the positive stimulator control. All wells were normalized with DMSO to a final concentration of 0.6% (0.2% end-concentration).
The immunoassay is done following the manufacturer's manual (Invitrogen, #A35603).
Additional information: For the immunoassay, MicroAmp™ EnduraPlate™ Optical 384-Well plates are used. Frozen supernatant is thawed and centrifuged for 5 minutes at 1000×g, both steps at 4° C. After centrifugation, required sample amount is taken from the top, and in a separate LightCycler V-bottom plate (working plate) diluted with assay dilution buffer, dilution factor depending on the PBS or CD3 condition but at least 1:3. IL-2 standard and blanks are prepared in the same V-bottom plate, standard with a range of […] (extended version). After preparation, […] of sample dilutions or standard/blanks are transferred to the optical 384-well plate (assay plate) and the 10 μl reaction protocol is being followed. For measurement, the QuantStudio 12K Flex system is used. Raw data is extracted and IL-2 concentrations are calculated with the Thermo Fisher online app (apps.thermofisher.com/apps/proquantum).
ELISA is done following the manufacturer's manual (Thermo Fisher Scientific, #88-7025-88).
Additional information: For the ELISA Nunc MaxiSorp 96 well plates are used. Frozen supernatant is thawed and centrifuged for 5 minutes at 1000×g, both steps at 4° C. After that, required sample amount is taken from the top, and in a separate V-bottom plate diluted with ELISA diluent, dilution factor depending on the PBS or CD3 condition. […]

[3] = Homo sapiens, T-cell, CD3 condition, 24 hours, 20 μM reference compound A1 = 100%, DMSO neutral control

T2 sequence (P23743 whole entry): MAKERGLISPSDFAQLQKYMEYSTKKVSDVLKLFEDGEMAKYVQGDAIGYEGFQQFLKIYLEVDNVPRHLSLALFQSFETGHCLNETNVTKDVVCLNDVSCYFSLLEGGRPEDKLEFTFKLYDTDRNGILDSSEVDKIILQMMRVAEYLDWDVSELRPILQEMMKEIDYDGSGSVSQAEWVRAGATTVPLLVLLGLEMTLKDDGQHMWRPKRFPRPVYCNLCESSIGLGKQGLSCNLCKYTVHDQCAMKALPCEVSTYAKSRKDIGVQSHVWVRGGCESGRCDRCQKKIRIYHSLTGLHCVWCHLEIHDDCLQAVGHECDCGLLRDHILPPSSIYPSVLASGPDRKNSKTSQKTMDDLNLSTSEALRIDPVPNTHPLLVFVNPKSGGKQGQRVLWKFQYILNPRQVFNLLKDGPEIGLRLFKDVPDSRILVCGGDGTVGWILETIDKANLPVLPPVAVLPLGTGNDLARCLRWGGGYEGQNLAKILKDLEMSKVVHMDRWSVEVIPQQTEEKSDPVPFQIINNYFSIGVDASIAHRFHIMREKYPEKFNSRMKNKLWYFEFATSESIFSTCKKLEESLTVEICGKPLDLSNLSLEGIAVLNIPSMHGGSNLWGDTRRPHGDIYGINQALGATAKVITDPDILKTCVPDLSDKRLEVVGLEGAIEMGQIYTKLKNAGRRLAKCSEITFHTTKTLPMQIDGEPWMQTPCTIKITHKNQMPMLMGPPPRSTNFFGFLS
T1 sequence (Q13574 whole entry): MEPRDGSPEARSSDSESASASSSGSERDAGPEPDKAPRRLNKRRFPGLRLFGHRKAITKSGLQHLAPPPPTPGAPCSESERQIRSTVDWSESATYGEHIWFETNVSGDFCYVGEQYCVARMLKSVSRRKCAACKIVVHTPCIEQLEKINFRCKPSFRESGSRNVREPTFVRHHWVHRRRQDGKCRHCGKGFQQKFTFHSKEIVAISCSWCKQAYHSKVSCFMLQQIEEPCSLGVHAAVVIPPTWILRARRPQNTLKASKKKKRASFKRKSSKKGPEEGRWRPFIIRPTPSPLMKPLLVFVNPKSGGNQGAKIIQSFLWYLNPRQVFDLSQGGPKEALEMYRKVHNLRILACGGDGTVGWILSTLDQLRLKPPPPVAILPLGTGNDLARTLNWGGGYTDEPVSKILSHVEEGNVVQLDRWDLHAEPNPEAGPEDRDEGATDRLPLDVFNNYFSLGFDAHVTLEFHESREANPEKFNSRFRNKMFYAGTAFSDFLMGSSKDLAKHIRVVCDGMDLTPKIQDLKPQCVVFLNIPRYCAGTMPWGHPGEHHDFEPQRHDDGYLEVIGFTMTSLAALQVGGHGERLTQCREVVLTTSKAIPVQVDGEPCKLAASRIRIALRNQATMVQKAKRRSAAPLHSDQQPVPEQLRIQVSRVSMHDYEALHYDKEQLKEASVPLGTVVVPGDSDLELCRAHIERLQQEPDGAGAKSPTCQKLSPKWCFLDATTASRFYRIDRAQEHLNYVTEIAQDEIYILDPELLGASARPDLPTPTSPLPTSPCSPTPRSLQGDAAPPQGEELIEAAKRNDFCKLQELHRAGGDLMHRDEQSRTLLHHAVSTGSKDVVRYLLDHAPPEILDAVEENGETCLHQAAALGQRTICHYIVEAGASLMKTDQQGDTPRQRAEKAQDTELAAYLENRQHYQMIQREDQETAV

## COC(=O)N1CC2CC(c3nnc(-c4cc5c(cc4F)C(F)(F)CC(N)C(=O)N5Cc4ccc(-c5noc(C(F)(F)F)n5)cc4)o3)(C2)C1 (single isomer, unassigned) [Example 42]
[1]
  pIC50: 5.65
[2]
  pIC50: 5.37
Primary human T-cells; Homo sapiens, T-cell
  pEC50: 5.54
Primary human T-cells; [3]
  Emax: 129%

## CC(C)(C)c1nnc(-c2cc3c(cc2F)C(F)(F)CC(N)C(=O)N3Cc2ccc(OC(F)(F)F)cc2)o1 (stereo not drawn) [Example 1, 3-amino-8-(5-tert-butyl-1,3,4-oxadiazol-2-yl)-5,5,7-trifluoro-1-[[4-(trifluoromethoxy)phenyl]methyl]-3,4-dihydro-1-benzazepin-2-one]
[1]
  pIC50: 4.70
[2]
  pIC50: 4.47
Primary human T-cells; Homo sapiens, T-cell
  pEC50: 5.98
Primary human T-cells; [3]
  Emax: 96%

## (3S)-3-amino-5,5,7-trifluoro-8-(5-morpholino-1,3,4-oxadiazol-2-yl)-1-[[4-(trifluoromethoxy)phenyl]methyl]-3,4-dihydro-1-benzazepin-2-one and (3R)-3-amino-5,5,7-trifluoro-8-(5-morpholino-1,3,4-oxadiazol-2-yl)-1-[[4-(trifluoromethoxy)phenyl]methyl]-3,4-dihydro-1-benzazepin-2-one [Example 3]
[1]
  pIC50: 5.54
[2]
  pIC50: 5.80
Primary human T-cells
  pEC50: < 5.00
Primary human T-cells; CD3 condition, 24 hours, 20 μM reference compound A1 = 100%, DMSO neutral control
  Emax IL2 (% activation): 37 % activation
